Laboratory results as given in patent US11660319B2, “Compositions comprising bacterial strains” (priority 2017, dated 2023).

Columns and labels:
[1] = system: HT29-mtx epithelial, mucin-producing cell monolayers; assay: mRNA expression of tight junction proteins in HT29-mtx (qRT-PCR); assay type: cell-based; details: 2 h incubation
Protocol: Total RNA was extracted using the RNeasy mini kit (Qiagen, Manchester, JUK) according to the manufacturer's instructions, and the RNA concentration determined by absorbance at 260/280 nm using a spectrophotometer (nano-Drop ND-1000; Thermo Scientific, Wilmington, Del.). For mRNA expression analysis, cDNA was prepared from total RNA using the High-Capacity cDNA reverse transcription kit (Applied Biosystems, UK) according to the manufacturer's instructions. The reverse transcription reactions were performed in a Thermo cycler (Biometra, Germany) at 25° C. for 10 min, 37° C. for 120 min, and 85° C. for 5 min, hold on at 4° C. Resulting cDNA was amplified in duplicates by the SYBR-Green PCR assay, and products were detected on QuantStudio 6 flex real-time PCR machine (Applied Biosystems, UK) using a standardised profile (initial denaturation of 95° C. for 10 minutes, followed by 40 cycles of 15 seconds of denaturation at 95° C. and 60 seconds of annealing/extension at 60/65° C., depending on the primers. A dissociation stage was added after the 40 cycles to generate a melting curve. Analysis was performed using the Applied Biosystems QuantStudio Real-Time PCR Software v1.2. The primer sequences for Actin, Villin, Occludin TJP1 and TJP2 are provided in the sequence listing.

SH-SY5Y cells = assay: MAP2 and β3-tubulin immunoblotting / confocal microscopy; assay type: cell-based, human; details: treated 24 h; actin loading control
Protocol: Cells were seeded onto 8-well chamber slides (Marienfeld Laboratory Glassware) at 5×10^4 cells/well overnight and were treated with 10% bacterial supernatant for 24 h. For differentiation, cells were treated with 10 nM RA for 5 days before treating with cell-free bacterial supernatant for 24 h. Afterwards, the cells were fixed with 4% paraformaldehyde in PBS for 20 minutes at room temperature (RT). Fixed cells were washed with PBS, and permeabilized with 1% Triton X-100 in PBS for 10 minutes. After washing with PBS, the slides were incubated with blocking buffer (4% BSA/PBS) for 1 h at RT before adding anti-MAP2 antibody or β3-tubulin (sc-74421 and sc-80005 respectively, Santa Cruz Biotechnology Inc) diluted in 1% BSA/PBS for 12 h at 4° C. They were then washed twice with PBS, followed by incubation with Alexa Flour 488 conjugated anti-mouse (Molecular Probes Inc) and Alexa Flour 594 conjugated Phalloidin (ab176757, Abcam) for 1 h at RT. […]
SH-SY5Y cells cultured under the indicated conditions described above, treated with MRx0005 and MRx0029 for 24 h and then lysed in RIPA buffer containing cocktail of protease inhibitors (Roche Diagnostics, UK). […] The blots were then incubated with the appropriate horseradish peroxidase (HRP)-conjugated secondary antibody, and proteins were detected by chemiluminescence detection kit (Pierce Biotechnology, Rockford, Ill.). […]

HDAC = HDAC inhibition on whole HT-29 cells and HT-29 cell lysate; assay type: cell-based
Protocol: Bacterial culture and cell-free supernatant collection Pure cultures of bacteria were grown anaerobically in YCFA broth until they reached their stationary growth phase. Cultures were centrifuged at 5,000×g for 5 minutes and the cell-free supernatant (CFS) was filtered using a 0.2 μM filter (Millipore, UK). 1 mL aliquots of the CFS were stored at −80° C. until use. Sodium butyrate, hexanoic and valeric acid were obtained from Sigma Aldrich (UK) and suspensions were prepared in YCFA broth.
To investigate which metabolites were responsible for the strain-induced HDAC inhibition, different concentrations of hexanoic acid, valeric acid and sodium butyrate were measured for their HDAC inhibition on whole HT-29 cells and on HT-29 cell lysate.

HDAC3 = molecular target: T1, HDAC3 (Homo sapiens, UniProt O15379); assay: Specific HDAC activity analysis (fluorogenic assay kit, BPS Bioscience); assay type: biochemical; details: cell free supernatant diluted 1 in 10
T1 construct: purchased BPS Bioscience, CA
Protocol: (§1) Specific HDAC inhibition activity was analysed for HDAC1, 2, 3, 4, 5, 6, 9 using fluorogenic assay kits for each type of HDAC (BPS Bioscience, CA). Assays were conducted according to manufacturer's instructions and each sample were performed in replicates. Cell free supernatants were diluted 1 in 10 and exposed to specific HDAC proteins provided in the kit to maintain consistency between methods.

HDAC2 = molecular target: T2, HDAC2 (Homo sapiens, UniProt Q92769); assay: as above; assay type: biochemical; details: cell free supernatant diluted 1 in 10
T2 construct: purchased BPS Bioscience, CA
Protocol: as §1

HDAC1 = molecular target: T3, HDAC1 (Homo sapiens, UniProt Q13547); assay: as above; assay type: biochemical; details: cell free supernatant diluted 1 in 10
T3 construct: purchased BPS Bioscience, CA
Protocol: as §1

[2] = system: U373 astroglioblastoma cells; assay: ROS generated by TBHP (DCFDA fluorescence); assay type: cell-based, human; details: 10% bacteria supernatant
class II HDACs = assay: Specific HDAC activity analysis (fluorogenic assay kit, BPS Bioscience); assay type: biochemical; details: data not shown
Protocol: as §1
The specific HDAC inhibition profile of the test bacteria strain was investigated. Specific HDAC inhibition assays (BPS Bioscience, CA) were carried out for Class I and Class II HDACs. The ability of the bacterial strain to inhibit HDAC enzymes was compared to butyrate, hexanoic and valeric acid (FIGS. 14 and 15).

[3] = Lipid peroxidation, thiobarbituric reactive substances assay (TBARs); details: positive control butylated hydroxytoluene (1% w/v)
Protocol: Bacterial cells (10^6 or greater) were collected and centrifuged, a wash step was performed with isotonic saline before the pellet was re-suspended in potassium chloride assay buffer. The suspension was sonicated on ice for 10 minutes and then spun down at 10,000×g for 10 minutes. The supernatant was removed and the level of lipid peroxidation evaluated using the thiobarbituric reactive substances assay.

T1 sequence (O15379 whole entry): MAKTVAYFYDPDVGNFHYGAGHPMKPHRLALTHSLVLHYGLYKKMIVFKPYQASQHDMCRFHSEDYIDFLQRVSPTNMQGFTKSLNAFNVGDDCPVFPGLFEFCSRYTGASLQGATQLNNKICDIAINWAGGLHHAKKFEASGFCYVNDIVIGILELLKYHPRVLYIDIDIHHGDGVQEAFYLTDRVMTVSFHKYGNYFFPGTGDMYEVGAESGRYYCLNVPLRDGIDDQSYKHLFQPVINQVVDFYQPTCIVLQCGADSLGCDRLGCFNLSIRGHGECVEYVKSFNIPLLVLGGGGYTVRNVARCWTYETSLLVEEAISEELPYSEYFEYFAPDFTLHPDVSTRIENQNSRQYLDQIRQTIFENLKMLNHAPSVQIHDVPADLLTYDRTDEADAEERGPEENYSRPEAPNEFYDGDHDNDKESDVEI
T1 sequence (Q9Y618 395-489 partner limits assumed): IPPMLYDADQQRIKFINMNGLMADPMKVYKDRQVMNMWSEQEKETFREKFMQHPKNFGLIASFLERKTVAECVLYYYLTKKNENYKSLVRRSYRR
T2 sequence (Q92769 whole entry): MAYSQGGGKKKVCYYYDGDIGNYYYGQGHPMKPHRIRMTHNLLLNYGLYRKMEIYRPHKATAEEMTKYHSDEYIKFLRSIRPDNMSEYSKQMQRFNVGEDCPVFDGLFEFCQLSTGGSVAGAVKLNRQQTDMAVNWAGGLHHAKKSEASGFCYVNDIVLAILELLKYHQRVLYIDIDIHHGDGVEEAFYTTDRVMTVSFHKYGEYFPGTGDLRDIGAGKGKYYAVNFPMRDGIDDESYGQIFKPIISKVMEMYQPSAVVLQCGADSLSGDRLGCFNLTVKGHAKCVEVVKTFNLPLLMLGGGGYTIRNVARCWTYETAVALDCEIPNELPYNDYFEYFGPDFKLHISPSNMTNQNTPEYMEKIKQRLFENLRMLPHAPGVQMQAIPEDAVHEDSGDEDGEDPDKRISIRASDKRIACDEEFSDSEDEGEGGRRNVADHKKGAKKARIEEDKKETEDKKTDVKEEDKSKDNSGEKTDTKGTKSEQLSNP
T3 sequence (Q13547 whole entry): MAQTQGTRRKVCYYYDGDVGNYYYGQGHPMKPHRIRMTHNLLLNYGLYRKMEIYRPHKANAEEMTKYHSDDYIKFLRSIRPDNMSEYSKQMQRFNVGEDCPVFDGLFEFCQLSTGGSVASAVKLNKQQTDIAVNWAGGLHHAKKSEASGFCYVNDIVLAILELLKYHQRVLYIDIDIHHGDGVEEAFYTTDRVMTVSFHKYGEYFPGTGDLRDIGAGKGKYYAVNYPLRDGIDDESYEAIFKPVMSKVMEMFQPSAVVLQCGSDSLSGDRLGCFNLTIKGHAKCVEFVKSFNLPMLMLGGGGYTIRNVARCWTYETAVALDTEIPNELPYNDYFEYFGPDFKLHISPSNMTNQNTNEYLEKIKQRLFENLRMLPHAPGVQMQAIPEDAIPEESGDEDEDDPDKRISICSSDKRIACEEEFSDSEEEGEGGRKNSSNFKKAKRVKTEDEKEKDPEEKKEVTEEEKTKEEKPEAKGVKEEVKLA

Megasphaera massiliensis [MRx0029]
Occludin mRNA expression [1]: enhanced
Tight Junction Protein 1 (TJP1) mRNA expression [1]: enhanced
Tight Junction Protein 2 (TJP2) mRNA expression [1]: enhanced
Vlillin mRNA expression [1]: enhanced
level expression of MAP2 (immunoblot) (SH-SY5Y cells): increase
HDAC inhibition, HT29 cell lysate (HDAC; HT-29 cell lysate): strong HDAC inhibition
HDAC inhibition, HT29 whole cell (HDAC; whole HT-29 cells): strong HDAC inhibition
HDAC3 inhibition (HDAC3): very potent inhibitor
HDAC2 inhibition (HDAC2): very potent inhibitor
HDAC1 inhibition (HDAC1): very potent inhibitor
generation of ROS [2]: did not have an effect
Inhibition of class II HDACs (class II HDACs): not as significant
inhibition of lipid peroxidation [3]: approximately 20%
